In test [1] the test system is human telomerase reverse transcriptase (hTERT) gene. The experiment in a line: hTERT expression by quantitative real-time PCR in bronchial epithelial cells. The note with it: KSFM. The class given is cell-based. As to the method: (§1) Total RNA was prepared using TRIzol® Plus RNA Purification Kit (Life Technologies, 12183-555) and PureLink® RNA Mini Kit (Life Technologies, 12183018A), following the manufacturer's instructions. One hundred nanogram total RNA was used for the determination of human telomerase reverse transcriptase (hTERT) expression using the TaqMan® RNA-to-CT™ 1-Step Kit (Life Technologies, 4392938), following the protocol provided by the supplier. hTERT primers and Taqman® probe used were as follows: forward primer, 5′-[…]-3′ (SEQ ID NO:7), reverse primer, 5′-[…]-3′ (SEQ ID NO:8) and Taqman® probe, 5′-[…]-3′ (SEQ ID NO:9).
(§2) In this example, hTERT expression in epithelial cells was assessed in the presence of an ALK5 inhibitor, a Rho kinase inhibitor (i.e., a Rho-associated protein kinase inhibitor), or both. Expression of hTERT gene was examined by quantitative real-time PCR in bronchial epithelial cells and prostate epithelial cells. The cells were treated with an ALK5 inhibitor, A83-01, or a Rho kinase inhibitor (i.e., a Rho-associated protein kinase inhibitor), Y-27632, or both inhibitors, at different passages in KSFM.
In general terms: Real-time PCR tracks product formation cycle by cycle.

For test [2] the test system is unchanged. Briefly: hTERT expression by quantitative real-time PCR in prostate epithelial cells. The format is cell-based. The note with it: KSFM. The procedure:
as §1, §2
As shown in FIG. 6A and FIG. 6B, prostate epithelial cells at early passage (p2) expressed low level of hTERT, which quickly diminished at passage 3 and became non-detectible by passage 5.

Test [3] has as its system prostate epithelial cells. Briefly: Plating efficiency of prostate epithelial cells in KSFM. The note with it: regular tissue culture surface. The class given is cell-based, human. As to the method: (§3) Epithelial cells (prostate epithelial cells and bronchial epithelial cells) were plated at 3,000-10,000 viable cells/cm^2 in tissue culture vessels, using culture medium as indicated in Examples 2 to 5 and FIGS. 1 to 17, and incubated at 37° C. with 5% CO2. The medium was changed every 2 or 3 days. Cells were sub-cultured using standard trypsinization method when they were about 70-90% confluent. Total cell number was determined using the Countess II Automated Cell Counter (Life Technologies, AMQAX1000) following manufacturer's instructions.
(§4) In this example, epithelial cell plating efficiency, i.e., number of cells that efficiently attach to the cell culture surfaces, continue to divide and grow into colonies, was examined under various conditions.
(§5) However, those few cells that did attach continued to proliferate.
Many prostate epithelial cells attached to regular tissue culture surface in the presence of both A83-01 and Y-27632 at day 2 after plating.

The subject of test [4] is bronchial epithelial cells. The experiment in a line: Plating efficiency of bronchial epithelial cells in KSFM. The format is cell-based, human. The note with it: regular tissue culture surface. As to the method: as §3, §4, §5
Many bronchial epithelial cells attached to regular tissue culture surface in the presence of both A83-01 and Y-27632 at day 2 after plating.

Test [5] relates to prostate epithelial cells. Briefly: Growth (population doublings) of prostate epithelial cells in culture. The class given is cell-based, human. As to the method:
as §3
(§6) A formula used for the calculation of population doublings (PD) is presented in Equation A: n=3.32*(log Y−log I)+X Equation A where n=the final PD number at end of a given subculture, Y=the cell yield at the time of harvesting, I=the cell number used as inoculum to begin that subculture, and X=the doubling level of the inoculum used to initiate the subculture being quantitated.
(§7) Prostate and bronchial epithelial cells were grown in KSFM in the presence of Rho kinase inhibitor (i.e., Rho-associated protein kinase inhibitor) Y-27632.
To examine the effects of additional in vitro and/or ex vivo growth conditions, prostate epithelial cells were grown in KSFM or PrEGM in the presence of media alone, ALK5 inhibitor A83-01, Rho kinase inhibitor (i.e., Rho-associated protein kinase inhibitor) Y-27632, or both (with or without collagen).

Test [6] has as its system bronchial epithelial cells. The experiment in a line: Growth (population doublings) of bronchial epithelial cells in culture. The format is cell-based, human. As to the method:
as §3, §6, §7
Similar to the experiment above, bronchial epithelial cells were grown in KSFM in the presence of media alone, ALK5 inhibitor A83-01, Rho kinase inhibitor (i.e., Rho-associated protein kinase inhibitor) Y-27632, or both (with or without collagen).

Test [7] relates to late passage prostate epithelial cells. Briefly: Proliferation of late passage prostate epithelial cells in KSFM plus compounds, 5 days. The format is cell-based, human. As to the method:
Stocks of certain chemicals used in the study were prepared by dissolving in DMSO to 10 mM. The chemical stocks were added to culture media to desired final concentrations, as described in Examples 2 to 5 and shown in FIGS. 1 to 17, from the time when cell culture was initiated.
In a control experiment with no added compound, there was minimum increase of cell numbers after 5 days.
In control experiment with no inhibitor added to KSFM, there was minimum increase of cell numbers after 5 days. […] As described above, these include Rho kinase inhibitors (i.e., Rho-associated protein kinase inhibitors) such as Y-27632, SR 3677, GSK 429286 and Thiazovivin; PAK1 inhibitor IPA-3; and myosin II inhibitor (i.e., non-muscle myosin II (NM II) inhibitor) Blebbistatin.

The subject of test [8] is keratinocytes. Briefly: Expansion of keratinocytes in KSFM supplemented with combinations of components. The class given is cell-based, human. The note with it: increasing doses, KSFM with EGF, isoproterenol, A 83-01 and rHA. As to the method: In another experiment, keratinocytes were cultured in KSFM supplemented with various combinations of components.
In another experiment, keratinocytes were cultured in the presence of increasing doses of ROCK inhibitor (Y-27632) or Myosin II ATPase inhibitor (blebbistatin), in KSFM supplemented with EGF (0.5 ng/mL), isoproterenol (3 μM), A 83-01 (1 μM), and recombinant human serum albumin (expressed in rice; 100 μg/mL).
In another experiment, keratinocytes were cultured in the presence of increasing doses (between 10 nM to 2 μM) of retinoic acid receptors (RAR) antagonist BMS-453 or retinoic acid receptors (RAR) antagonist BMS-195614, in KSFM supplemented with EGF (0.5 ng/mL), isoproterenol (3 μM), A 83-01 (1 μM), and recombinant human serum albumin (expressed in rice; 100 μg/mL).

The subject of test [9] is human foreskin keratinocytes (HFK) and human bronchial epithelial cells (HBEC). Briefly: Cell growth with increasing isoproterenol in KSFM plus A83-01 and Y-27632, six days. The class given is cell-based. The note with it: in KSFM plus 1 μM A83-01 and 5 μM Y-27632, six days. As to the method:
In a further investigation, epithelial cell growth was assessed in the presence of a beta-adrenergic agonist (i.e., a beta-adrenergic receptor agonist). Human foreskin keratinocytes (HFK) and human bronchial epithelial cells (HBEC) were cultured in KSFM plus 1 μM A83-01 and 5 μM Y-27632, supplemented with increasing concentrations of isoproterenol (a beta-adrenergic receptor agonist that increases cytosolic cAMP levels). Cell numbers were counted after six days to calculate cell growth relative to control.

[10] abbreviates: KSFM, compound used alone, late passage.

The source of these data is patent US11060715B2, “Ex vivo proliferation of epithelial cells” (PROPAGENIX INC., priority 2015, dated 2021).

Structures are written as SMILES.

Turning to `C[C@@H](N)[C@H]1CC[C@H](C(=O)Nc2ccncc2)CC1.Cl.Cl` [Y-27632, (R)-(+)-trans-4-(1-Aminoethyl)-N-(4-Pyridyl)cyclohexanecarboxamide dihydrochloride], the hTERT expression result in test [1] (early passage (p3)) was “slightly induced”; in test [1] (late passage (p6)) it was “non-detectible”; in test [2] (early passage (p2)), “induced”; in [2] (late passage (p5)), “non-detectible”. For the same molecule, the “plating efficiency in the presence of A83-01” value in test [3] and in test [4] was “ameliorated the low plating efficiency” in each case. The “population doubling (PD) reached before cells entered senescence” value in test [5] (KSFM) was above 20. Further, the proliferation result in test [5] (setting [10]) and in [6] (setting [10]) was “did not promote the proliferation” each time. In addition, the total population doublings entry in test [5] (added to KSFM) and in [6] (added to KSFM) was “slightly increased the total population doublings” throughout. In addition, the “cell proliferation after 5 days” value in test [7] (KSFM plus compound alone (FIG. 17)) is “slight increase of cell proliferation”; in test [7] (used together with A83-01 in KSFM, 5 μM, 1 μM and 0.2 μM (FIG. 17)) it was “synergistically increased”. For the same molecule, the “total cell number after 5 days” value in test [7] (KSFM plus individual compound alone, 5 μM, 1 μM and 0.2 μM (FIG. 16)) is given as “slight increase of total cell numbers”. Also, the cell growth rate entry in [8] is listed as “No significant increase of cell growth rate”.

`CC(C)NCC(O)c1ccc(O)c(O)c1` (stereo not shown) [isoproterenol]: the “cell growth relative to control” value in test [9] is “further increased epithelial cells growth”.
